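96-well plates; 48 h exposure; 5 concentrations. Endpoints by linear interpolation between flanking doses. Not reached: highest tested concentration assigned. Here, GI50 denotes the concentration required for 50% inhibition of growth.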 Calls of active or inactive are those of the source. Rule as the data show it: active = GI50 up to about 1.1 µM and inactive = higher.
What was measured:
Test in all cases: growth of human tumour cells (NCI), 48 h
A549 = system: A549
ACHN = system: ACHN
HCT-15 = system: HCT-15
HL-60 = system: HL-60
HT-29 = system: HT-29
IGROV-1 = system: IGROV-1
KM12 = system: KM12
MDA-MB-231 = system: MDA-MB-231
MDA-MB-435 = system: MDA-MB-435
MOLT-4 = system: MOLT-4
NCI-H23 = system: NCI-H23
NCI-H460 = system: NCI-H460
OVCAR-3 = system: OVCAR-3
OVCAR-4 = system: OVCAR-4
OVCAR-5 = system: OVCAR-5
PC-3 = system: PC-3
RPMI-8226 = system: RPMI-8226
SF-295 = system: SF-295
SF-539 = system: SF-539
SNB-75 = system: SNB-75

Row | Compound | GI50 (A549) | GI50 (ACHN) | GI50 (HCT-15) [µM] | GI50 (HL-60) | GI50 (HT-29) | GI50 (IGROV-1) | GI50 (KM12) | GI50 (MDA-MB-231) | GI50 (MDA-MB-435) | GI50 (MOLT-4) | GI50 (NCI-H23) | GI50 (NCI-H460) | GI50 (OVCAR-3) | GI50 (OVCAR-4) | GI50 (OVCAR-5) | GI50 (PC-3) | GI50 (RPMI-8226) | GI50 (SF-295) | GI50 (SF-539) | GI50 (SNB-75)
1 | Cn1c(=O)c2c(nc(C(=N)SCC(=O)O)n2C)n(C)c1=O | 39.5 µM (inactive) | 41 µM (inactive) | 31.8 | 27.7 µM (inactive) | 48.2 µM (inactive) | 47 µM (inactive) | 34.5 µM (inactive) | > 100 µM (inactive) | 29.2 µM (inactive) | 22.2 µM (inactive) | 27.7 µM (inactive) | 29.6 µM (inactive) | 43.5 µM (inactive) | 24.4 µM (inactive) | 47.5 µM (inactive) | 48.4 µM (inactive) | 42.2 µM (inactive) | 52.7 µM (inactive) | 32.8 µM (inactive) | 41.2 µM (inactive)
2 | CC[C@@H]1CN(C)[C@H]2Cc3c([nH]c4ccccc34)C(=O)C[C@H]1C2C(=O)OC (stereo not given in full) | > 100 µM (inactive) | > 100 µM (inactive) | > 100 | > 89.3 µM (inactive) | > 100 µM (inactive) | > 100 µM (inactive) | > 100 µM (inactive) | > 100 µM (inactive) | > 100 µM (inactive) | > 93.8 µM (inactive) | > 100 µM (inactive) | > 100 µM (inactive) | > 100 µM (inactive) | > 31.6 µM (inactive) | > 100 µM (inactive) | > 100 µM (inactive) | > 88.5 µM (inactive) | > 54.2 µM (inactive) | > 100 µM (inactive) | > 91.4 µM (inactive)
3 | Nc1ccc(S(=O)(=O)Nc2nc3ccccc3nc2Nc2ccc(S(N)(=O)=O)cc2)cc1 | 47.1 µM (inactive) | 42.7 µM (inactive) | 37.7 | 25.1 µM (inactive) | 57.8 µM (inactive) | 21.8 µM (inactive) | 33 µM (inactive) | 53.8 µM (inactive) | 49.3 µM (inactive) | 15.4 µM (inactive) | 20.5 µM (inactive) | > 100 µM (inactive) | 32.4 µM (inactive) | 2.45 µM (inactive) | > 100 µM (inactive) | 34.9 µM (inactive) | 33.7 µM (inactive) | 26.9 µM (inactive) | 31.8 µM (inactive) | 13.6 µM (inactive)
4 | COc1c(-c2nc3ccc(N4CCN(C)CC4)nc3[nH]2)cc(OC)c2c1nc(CCl)n2C | 27.8 µM (inactive) | 13.7 µM (inactive) | 26.3 | 26.5 µM (inactive) | 16.3 µM (inactive) | 18.4 µM (inactive) | 14.8 µM (inactive) | 19.2 µM (inactive) | 16.1 µM (inactive) | 18.1 µM (inactive) | 20.1 µM (inactive) | 20.6 µM (inactive) | 28.1 µM (inactive) | 18.3 µM (inactive) | 21.6 µM (inactive) | 11.2 µM (inactive) | 10.5 µM (inactive) | 31.8 µM (inactive) | 4.99 µM (inactive) | 12.6 µM (inactive)
5 | Cc1ccc2c(c1)CC1(C2)Cc2ccc(C)cc2C1=O (stereo not given) | 33.3 µM (inactive) | 27.7 µM (inactive) | 15.6 | 19 µM (inactive) | 18.7 µM (inactive) | 36 µM (inactive) | 23.5 µM (inactive) | 21.5 µM (inactive) | 11.4 µM (inactive) | 14.9 µM (inactive) | 36.5 µM (inactive) | 23.3 µM (inactive) | 23.9 µM (inactive) | 46.5 µM (inactive) | 43.9 µM (inactive) | 27.9 µM (inactive) | 22.3 µM (inactive) | 45.9 µM (inactive) | 26.2 µM (inactive) | 18.2 µM (inactive)
6 | CCOC(=O)C(Cc1cn(S(=O)(=O)c2ccc(C)cc2)cn1)P(=O)(OCC)OCC (stereo not given) | > 100 µM (inactive) | > 100 µM (inactive) | > 100 | > 100 µM (inactive) | > 100 µM (inactive) | > 100 µM (inactive) | > 100 µM (inactive) | > 100 µM (inactive) | > 100 µM (inactive) | > 100 µM (inactive) | > 100 µM (inactive) | > 100 µM (inactive) | > 100 µM (inactive) | > 100 µM (inactive) | > 100 µM (inactive) | > 100 µM (inactive) | > 100 µM (inactive) | > 100 µM (inactive) | > 100 µM (inactive) | > 100 µM (inactive)
7 | O=C1c2n[nH]nc2C(=O)c2n[nH]nc21 | > 100 µM (inactive) | > 100 µM (inactive) | > 100 | > 100 µM (inactive) | > 100 µM (inactive) | > 66.4 µM (inactive) | > 100 µM (inactive) | > 100 µM (inactive) | > 100 µM (inactive) | > 100 µM (inactive) | > 100 µM (inactive) | > 100 µM (inactive) | > 100 µM (inactive) | > 100 µM (inactive) | > 100 µM (inactive) | > 100 µM (inactive) | > 100 µM (inactive) | > 100 µM (inactive) | > 100 µM (inactive) | > 100 µM (inactive)
8 | O=c1c2ccccc2[nH]c(=S)n1-c1ccc(/N=N/c2cccc3cc(O)ccc23)cc1 | > 100 µM (inactive) | > 100 µM (inactive) | 36.3 | 22.3 µM (inactive) | > 100 µM (inactive) | 64.9 µM (inactive) | > 100 µM (inactive) | 48.4 µM (inactive) | > 100 µM (inactive) | > 100 µM (inactive) | > 100 µM (inactive) | > 100 µM (inactive) | > 100 µM (inactive) | > 100 µM (inactive) | 74.1 µM (inactive) | 35.1 µM (inactive) | > 100 µM (inactive) | > 100 µM (inactive) | > 100 µM (inactive) | > 100 µM (inactive)
9 | CC(C)(C)c1cc2c(O)c(c1)Cc1cc(C(C#N)(Cc3ccc4ccccc4c3)Cc3ccc4ccccc4c3)cc(c1O)Cc1cc(C(C)(C)C)cc(c1O)Cc1cc(C(C#N)(Cc3ccc4ccccc4c3)Cc3ccc4ccccc4c3)cc(c1O)C2 | > 100 µM (inactive) | > 100 µM (inactive) | > 100 | > 100 µM (inactive) | > 100 µM (inactive) | > 100 µM (inactive) | > 100 µM (inactive) | > 100 µM (inactive) | > 100 µM (inactive) | > 100 µM (inactive) | > 100 µM (inactive) | > 100 µM (inactive) | > 100 µM (inactive) | > 100 µM (inactive) | > 100 µM (inactive) | > 100 µM (inactive) | > 100 µM (inactive) | > 100 µM (inactive) | > 100 µM (inactive) | > 100 µM (inactive)
10 | N#Cc1ccc(-c2nc3c(N)nc(-c4ccccc4)nc3o2)cc1 | 88.7 µM (inactive) | 26.9 µM (inactive) | > 100 | > 100 µM (inactive) | > 100 µM (inactive) | > 100 µM (inactive) | > 100 µM (inactive) | 13.3 µM (inactive) | > 100 µM (inactive) | > 100 µM (inactive) | > 100 µM (inactive) | > 100 µM (inactive) | 61.4 µM (inactive) | 17.3 µM (inactive) | > 100 µM (inactive) | > 100 µM (inactive) | > 100 µM (inactive) | 51.1 µM (inactive) | 5.6 µM (inactive) | 72.9 µM (inactive)
11 | COC(=O)[C@@H]1c2cc3c(c(O)c2[C@@H](OC2OC(C)C(OC)C(C)(OC)C2OC)C[C@]1(C)O)C(=O)c1c(O)cc2c(c1C3=O)O[C@H]1O[C@]2(C)[C@H](O)[C@@H](N(C)C)[C@@H]1O (stereo not given in full) | 0.0156 µM (active) | 0.069 µM (active) | 0.247 | 0.0148 µM (active) | 0.00815 µM (active) | 0.0101 µM (active) | 0.0065 µM (active) | 0.0288 µM (active) | 0.0612 µM (active) | 0.0146 µM (active) | 0.00581 µM (active) | 0.00377 µM (active) | 0.0351 µM (active) | 0.0191 µM (active) | 0.0815 µM (active) | 0.0468 µM (active) | 0.00243 µM (active) | 0.0154 µM (active) | 0.0246 µM (active) | 0.00608 µM (active)
12 | [O-][S+]1SC(=S)C2C=CC=NC21 (stereo not given) | 19.2 µM (inactive) | 18.1 µM (inactive) | 17.3 | > 100 µM (inactive) | 16.1 µM (inactive) | 20.1 µM (inactive) | 87.7 µM (inactive) | 18.7 µM (inactive) | > 100 µM (inactive) | 16.4 µM (inactive) | 18.6 µM (inactive) | 17.4 µM (inactive) | 20.6 µM (inactive) | > 100 µM (inactive) | 15.3 µM (inactive) | 16.8 µM (inactive) | 32.1 µM (inactive) | 22.4 µM (inactive) | 16 µM (inactive) | 18.7 µM (inactive)
13 | FC(F)(F)C1(C(F)(F)F)C2CCC3(CC(F)(F)C(F)(F)S3)C1C2 (stereo not given) | 38.9 µM (inactive) | 37.8 µM (inactive) | 62.8 | 27.9 µM (inactive) | 29 µM (inactive) | 87.7 µM (inactive) | 76.6 µM (inactive) | > 100 µM (inactive) | 86.7 µM (inactive) | 23.4 µM (inactive) | 35.7 µM (inactive) | 41.3 µM (inactive) | 19.6 µM (inactive) | 80.5 µM (inactive) | 48.6 µM (inactive) | 37.2 µM (inactive) | 28.2 µM (inactive) | 55.1 µM (inactive) | > 100 µM (inactive) | 61.9 µM (inactive)
14 | CC(=O)Oc1ccc2c(c1)CC[C@@H]1C2[C@@H](O[N+](=O)[O-])C[C@@]2(C)C1CC[C@@H]2O (stereo not given in full) | 37.3 µM (inactive) | 61.1 µM (inactive) | 28.9 | 9.2 µM (inactive) | 30.8 µM (inactive) | 55.3 µM (inactive) | 29.9 µM (inactive) | 39.1 µM (inactive) | 7.31 µM (inactive) | 24.5 µM (inactive) | 42.9 µM (inactive) | 35.3 µM (inactive) | 35.1 µM (inactive) | 52.1 µM (inactive) | 33 µM (inactive) | 47.3 µM (inactive) | 21 µM (inactive) | 35.5 µM (inactive) | 25.6 µM (inactive) | 45.7 µM (inactive)

Source: ChEMBL document CHEMBL1201862, “PubChem BioAssay data set” (2004)
